Results: patent US6939541B2, “Cloning, overexpression and therapeutic use of bioactive histidine ammonia lyase” (priority 2000, dated 2005)

Columns and labels:
[1] = target: Corynebacteriaceae histidine ammonia lyase (HAL) (Glutamicibacter halophytocola, UniProt A0A5B8IKQ6, DEL117-117/DEL409-409/N172D/R434P/T116S); test: biochemical; assay type: biochemical, bacterium of the family Corynebacteriaceae; conditions: for IC50: inhibition not complete, read-out: concentration required to reduce the activity by half
[2] = target: T1, Streptomyces griseus histidine ammonia lyase (Streptomyces griseus, UniProt P24221); test: Inhibition of Streptomyces griseus histidine ammonia lyase; assay type: biochemical; conditions: equal molar concentration to histidine
Excerpt: HAL has a significant advantage over other histidine ammonia lyases in that it is relatively resistant to inhibition by L-histidinol. L-histidinol is a histidine analog. Because L-histidinol acts as a competitive inhibitor it must be present in high concentrations to have an effect on histidine dependent reactions. Using HAL to reduce the overall histidine pool would therefore greatly increase the effectiveness of L-histidinol. […] Because the Corynebacteriaceae histidine ammonia lyase (HAL) is not inhibited by L-histidinol at therapeutic L-histidinol levels it has a great advantage over other histidine ammonia lyases. […] However, with HAL 20% of activity still is retained when L-histidinol is present at 10 times the concentration of L-histidine.

[3] = system: Respiratory Syncytial Virus (RSV); test: RSV plaque assay in Hep2 cells; assay type: cell-based; conditions: L-histidinol 3 mM
Description: Another successful study has been with Respiratory Syncytial Virus (RSV). RSV is another highly infectious disease causing agent. It causes lower respiratory-tract infections such as bronchitis and pneumonia in infancy and early childhood, with nearly 50% of infants suffering from an RSV infection during their first winter. Experiments were performed in tissue culture using the RSV Plaque Assay. The RSV plaque assay is performed similarly to the HSV assay. When performing the RSV assay Hep2 cells are used to propagate the RSV and the cells are grown in EMEM media with 2% FBS, L-glutamine and Antibiotic-Antimycotic. The virus stock is diluted in the medium and added to each well with or without the desired testing compound. The plates are incubated for 2 hours at 37° C. and the virus is removed. 0.5% agarose is added to the media and incubated for 5 days at 37° C. The plates are then fixed with 10% formalin and stained with crystal violet.

[4] = target: histidine ammonia lyase isolated from Achromobacter liquidum; conditions: Shibatani et al. 1975; cited from earlier work
[5] = system: Herpes Simplex Virus (HSV); test: HSV plaque assay in VERO cells; assay type: cell-based
Description: HAL was tested for its anti-viral activity against a variety of infectious viruses in vitro. Effectiveness against Herpes Simplex Virus (HSV) was assayed using the following method. Confluent VERO cells from a T-175 flask are tyrpsinized and split into as many T-25 flasks as the experiment requires. The cells are grown in RPMI-1640 with 10% newborn calf serum-heat inactivated, and L-glutamine. After cells have grown to confluence remove the media and add 0.5 ml of diluted virus (make a series of 1:5 dilution). Dilution of virus is prepared in RPMI-1640 with 2% NCS. The cells are then incubated for 1 hour at 37° C. and then 5 ml of RPMI-1640 with 2% NCS with or without the test compounds is added and incubation is allowed to continue for 1 day. After 24 hours the flasks are sealed with parafilm and frozen at −70° C. The cells are then allowed to thaw at RT to lyse dead intact cells, releasing virus. The viral suspension is then centrifuged to remove cell debris. The viral dilution that caused complete lysis will be used in the plaque assay. The plaque assay is set up by trypsinizing cells from a T-75 and resuspending the cells in RPMI-1640 with 10% NCS and poured into 6-well plate at 2 ml/well. The cells are incubated overnight at 37° C. The media is then removed by suction and 0.2 ml of the viral dilution is added and allowed to incubate for one hour. During this hour the agar is prepared and stored at 41° C. to prevent hardening. The agar concentrations are as follows: ½ vol. 2×BME (Gibco), 2% Pen/Strep, 2% NCS, and 1% agar. After the hour incubation 2 ml of the BME/agar is carefully added to the wells, so as not to disturb the cell monolayer. The plate is left at RT for twenty to thirty minutes to allow the agar to harden, and then the cells are incubated for 48 hours at 37° C. The cells are then stained used BME/agar containing neutral red. The BME/agar is prepared as before with the addition of neutral red stain (Gibco) to a final concentration of 5%. […] Plaques are then counted and the cells fixed for a permanent record.

[6] = target: T1, Streptomyces griseus histidine ammonia lyase; conditions: Wu et al.; cited from earlier work

Chain of Corynebacteriaceae histidine ammonia lyase (HAL) (A0A5B8IKQ6 entry or part of it T116S/DEL117-117/N172D/DEL409-409/R434P): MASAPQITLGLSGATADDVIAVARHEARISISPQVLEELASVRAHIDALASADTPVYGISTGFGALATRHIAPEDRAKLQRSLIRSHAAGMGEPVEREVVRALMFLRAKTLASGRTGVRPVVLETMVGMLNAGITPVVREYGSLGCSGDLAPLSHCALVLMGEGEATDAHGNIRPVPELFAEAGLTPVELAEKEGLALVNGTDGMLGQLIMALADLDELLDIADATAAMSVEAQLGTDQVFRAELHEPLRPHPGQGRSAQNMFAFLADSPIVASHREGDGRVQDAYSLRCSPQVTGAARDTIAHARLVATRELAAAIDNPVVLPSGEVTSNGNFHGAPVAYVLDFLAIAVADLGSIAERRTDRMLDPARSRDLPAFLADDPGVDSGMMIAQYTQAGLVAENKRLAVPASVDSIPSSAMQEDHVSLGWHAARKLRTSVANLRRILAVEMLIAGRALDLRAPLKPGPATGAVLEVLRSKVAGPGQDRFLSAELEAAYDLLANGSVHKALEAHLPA
T1 sequence (P24221 whole entry): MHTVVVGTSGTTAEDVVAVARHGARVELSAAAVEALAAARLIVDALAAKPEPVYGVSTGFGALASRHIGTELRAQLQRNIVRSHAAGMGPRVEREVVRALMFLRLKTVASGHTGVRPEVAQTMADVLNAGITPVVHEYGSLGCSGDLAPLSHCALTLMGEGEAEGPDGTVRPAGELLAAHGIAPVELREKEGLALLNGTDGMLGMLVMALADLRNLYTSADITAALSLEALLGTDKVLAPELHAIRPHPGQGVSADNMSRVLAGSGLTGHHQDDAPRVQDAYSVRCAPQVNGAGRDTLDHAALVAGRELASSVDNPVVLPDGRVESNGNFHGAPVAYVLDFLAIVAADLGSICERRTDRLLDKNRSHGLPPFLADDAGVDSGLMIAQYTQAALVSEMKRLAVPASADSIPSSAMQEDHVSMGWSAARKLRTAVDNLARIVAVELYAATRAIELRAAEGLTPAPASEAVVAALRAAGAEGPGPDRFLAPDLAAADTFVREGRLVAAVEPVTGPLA

## O[C@@H](CS)[C@@H](O)CS [DTT]
[1]
  IC50: 15 mM

## O=C(O)CN(CCN(CC(=O)O)CC(=O)O)CC(=O)O [EDTA]
[1]; concentrations as low as 1 mM
  inhibition of the HAL reaction: completely inhibit
[1]; presence of Mn^2+ at 1×10^5 M
  reversibility of the inhibition: reversible

## N[C@H](CO)Cc1c[nH]cn1 [L-histidinol]
[1]
  Ki: 24.3 to 33.4 mM
[1]; therapeutic L-histidinol levels
  inhibition of HAL: not inhibited
[2]
  inhibition of the enzyme: completely inhibit
[3]
  inhibition of RSV plaque numbers: no inhibition
[4]
  Ki: 4.58 mM
[5]; L-histidinol 0.1 mM
  inhibition of HSV: no inhibition
[5]; L-histidinol 0.5 mM
  inhibition of HSV: no inhibition
[5]; L-histidinol 1 mM
  inhibition of HSV: 5 fold

## N[C@@H](CCC(=O)N[C@@H](CS)C(=O)NCC(=O)O)C(=O)O [reduced glutathione]
[1]
  IC50: 15 mM

## L-histidinol phosphate
[6]
  Ki: 0.27 mM
